Reference: the supplement of paper PMC10307832

Columns and labels:
Assay in all cases: relative viability (nuclei count vs DMSO), 5 days (fraction); higher = more cells survive
[1] = compound: COc1cc2ncn(-c3cc(OCc4ccccc4C(F)(F)F)c(C(N)=O)s3)c2cc1OC
In short: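 Cells of lung cancer lines were placed in 1536-well plates and kept overnight at 37 °C. Pinning then delivered five library-drug doses (not always all listed), spaced by √10, onto plates anchored with vehicle, and the cells were left 5 days without changing medium. One step fixed, permeabilised and stained them with Hoechst, and MetaXpress counted nuclei in 4× images. Viability, as a median over plates, is treated-well nuclei divided by vehicle-well nuclei, with acceptance only at control CV below 25% and at least one doubling.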

[2] = compound: COc1cc2ncn(-c3cc(OCc4ccccc4C(F)(F)F)c(C(N)=O)s3)c2cc1OC + N=C(N)NC(=N)NCCc1ccccc1 [Phenformin] (partner 250 µM)
In short: (§1)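 The day after seeding in 1536-well plates, lung cancer cell lines were treated by pin tool with a single drug, or with a fixed anchor-drug dose together with five library-drug doses (not always all listed) in √10 steps. After 5 days, a combined fix-and-stain solution (final 0.05% Triton X-100, 1% formaldehyde, 1 ug/ml Hoechst) was added. Nuclei counted on 4× images gave relative viability as treated counts over vehicle counts, reported as the median of duplicate plates.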

[3] = compound: COc1cc2ncn(-c3cc(OCc4ccccc4C(F)(F)F)c(C(N)=O)s3)c2cc1OC + Cc1cc(Nc2cc(N3CCN(C)CC3)nc(Sc3ccc(NC(=O)C4CC4)cc3)n2)n[nH]1 [Tozasertib] (partner 0.1 µM)
In short: as §1

[4] = compound: COc1cc2ncn(-c3cc(OCc4ccccc4C(F)(F)F)c(C(N)=O)s3)c2cc1OC + CC1(C)CCC(c2ccc(Cl)cc2)=C(CN2CCN(c3ccc(C(=O)NS(=O)(=O)c4ccc(N[C@H](CCN5CCOCC5)CSc5ccccc5)c(S(=O)(=O)C(F)(F)F)c4)cc3)CC2)C1 [Navitoclax] (partner 0.5 µM)
In short: as §1

Cell Line	relative viability ([1]; 0.05 µM)	relative viability ([1]; 0.1581 µM)	relative viability ([1]; 0.5 µM)	relative viability ([1]; 1.581 µM)	relative viability ([1]; 5 µM)	relative viability ([2]; first compound 0.05 µM)	relative viability ([2]; first compound 0.1581 µM)	relative viability ([2]; first compound 0.5 µM)	relative viability ([2]; first compound 1.581 µM)	relative viability ([2]; first compound 5 µM)	relative viability ([3]; first compound 0.05 µM)	relative viability ([3]; first compound 0.1581 µM)	relative viability ([3]; first compound 0.5 µM)	relative viability ([3]; first compound 1.581 µM)	relative viability ([3]; first compound 5 µM)	relative viability ([4]; first compound 0.05 µM)	relative viability ([4]; first compound 0.1581 µM)	relative viability ([4]; first compound 0.5 µM)	relative viability ([4]; first compound 1.581 µM)	relative viability ([4]; first compound 5 µM)
201T	0.994	1.02	0.995	0.377	0.294	0.482	0.252	0.413	0.242	0.205	1.03	1.09	0.809	0.426	0.324	1.26	1.2	1.19	0.902	0.326
A549	0.987	1.01	0.399	0.0506	0.054	0.152	0.145	0.0554	0.0361	0.0267	–	–	–	–	–	1.25	1.19	0.294	0.0413	0.0332
A-427	1.05	1	0.886	0.297	0.128	0.336	0.277	0.25	0.151	0.0968	0.195	0.188	0.176	0.162	0.142	1.06	0.991	0.79	0.331	0.173
ABC-1	0.807	0.937	0.736	0.311	0.241	0.239	0.255	0.226	0.172	0.181	0.219	0.223	0.155	0.251	0.255	–	–	–	–	–
BEN	1.01	0.965	0.845	0.396	0.383	0.262	0.28	0.217	0.218	0.206	0.514	0.498	0.5	0.56	0.47	0.0682	0.0597	0.0733	0.0523	0.0519
CAL-12T	0.827	0.836	0.565	0.249	0.193	0.524	0.339	0.21	0.153	0.138	0.316	0.26	0.208	0.164	0.2	1.09	1.11	0.573	0.231	0.148
COR-L23	1.05	1.03	0.692	0.128	0.147	0.464	0.385	0.201	0.104	0.0889	0.213	0.189	0.13	0.143	0.139	1	0.897	0.38	0.0788	0.091
COR-L 105	0.908	0.903	0.654	0.407	0.272	0.426	0.441	0.353	0.29	0.221	0.43	0.383	0.392	0.284	0.277	0.837	0.779	0.509	0.259	0.24
Calu-6	0.956	0.835	0.268	0.117	0.11	–	–	–	–	–	–	–	–	–	–	0.693	0.513	0.136	0.0798	0.0903
ChaGo-K-1	1.04	0.991	0.948	0.335	0.2	0.638	0.476	0.49	0.163	0.128	0.212	0.219	0.197	0.251	0.184	0.964	0.535	0.939	0.378	0.273
EBC-1	0.924	0.929	0.301	0.19	0.157	–	–	–	–	–	–	–	–	–	–	0.36	0.283	0.123	0.119	0.153
EKVX	1.02	0.99	0.77	0.394	0.629	0.236	0.151	0.188	–	0.197	0.371	0.408	0.311	–	0.229	0.96	0.814	0.91	0.35	0.486
EMC-BAC-2	1.29	1.06	0.805	0.435	0.239	0.545	0.528	0.465	0.215	0.142	0.332	0.314	0.223	0.215	0.245	1.2	1.14	1.07	0.766	0.178
EPLC-272H	0.615	0.946	0.269	0.124	0.101	–	0.323	0.151	0.135	0.15	–	0.306	0.169	0.148	0.147	1.12	0.982	0.255	0.0998	0.0968
H3255	0.971	0.947	0.866	0.398	0.608	0.365	0.37	0.282	–	0.304	0.563	0.722	0.451	–	0.41	0.558	0.314	0.363	0.125	0.101
HARA	1.01	0.853	0.8	0.176	0.0967	0.469	0.395	0.364	0.0656	0.0542	0.091	0.117	0.117	0.111	0.0871	1.18	1.06	0.531	0.26	0.0692
HCC-15	0.944	0.964	0.437	0.157	0.122	0.486	0.383	0.204	0.122	0.0883	0.509	0.394	0.138	0.151	0.139	0.695	0.641	0.316	0.104	0.0943
HCC-44	0.985	1	0.871	0.204	0.211	0.193	0.164	0.106	0.0862	0.118	0.983	0.903	0.242	0.346	0.199	1	0.913	0.187	0.121	0.0869
HCC-78	1.03	0.998	0.749	0.623	0.47	0.851	0.837	0.495	0.446	0.22	0.517	0.345	0.325	0.222	0.292	0.752	0.773	0.498	0.51	0.63

Cell Line	relative viability ([1]; 0.05 µM)	relative viability ([1]; 0.1581 µM)	relative viability ([1]; 0.5 µM)	relative viability ([1]; 1.581 µM)	relative viability ([1]; 5 µM)	relative viability ([2]; first compound 0.05 µM)	relative viability ([2]; first compound 0.1581 µM)	relative viability ([2]; first compound 0.5 µM)	relative viability ([2]; first compound 1.581 µM)	relative viability ([2]; first compound 5 µM)	relative viability ([3]; first compound 0.05 µM)	relative viability ([3]; first compound 0.1581 µM)	relative viability ([3]; first compound 0.5 µM)	relative viability ([3]; first compound 1.581 µM)	relative viability ([3]; first compound 5 µM)	relative viability ([4]; first compound 0.05 µM)	relative viability ([4]; first compound 0.1581 µM)	relative viability ([4]; first compound 0.5 µM)	relative viability ([4]; first compound 1.581 µM)	relative viability ([4]; first compound 5 µM)
HCC-366	1.02	0.927	0.429	0.0311	0.0273	0.612	0.534	0.301	0.0215	0.0222	0.101	0.12	0.0568	0.0457	0.046	1.03	1.03	0.313	0.0106	0.0086
HCC-827	1.04	0.986	0.901	0.541	0.341	0.468	0.426	0.33	0.22	0.181	0.411	0.397	0.37	0.344	0.313	0.988	0.99	0.874	0.287	0.201
HOP-62	1.03	1.01	0.861	0.336	0.161	0.67	0.664	0.53	0.15	0.108	0.361	0.334	0.241	0.175	0.201	0.92	0.984	0.843	0.232	0.814
IA-LM	0.865	0.81	0.109	0.0808	0.0819	–	–	–	–	–	–	–	–	–	–	0.89	0.411	0.0188	0.0121	0.0246
LC-2-ad	0.941	0.918	0.351	0.195	0.227	0.527	0.578	0.313	0.274	0.316	0.439	0.512	0.273	0.359	0.367	0.359	0.209	0.0767	0.0906	0.0667
LCLC-97TM1	1.1	1.08	0.665	0.132	0.127	0.398	0.492	0.353	0.154	0.148	0.254	0.246	0.148	0.17	0.162	0.4	0.502	0.307	0.141	0.0841
LCLC-103H	1.02	1.12	0.915	0.442	0.224	0.386	0.397	0.279	0.178	0.127	0.395	0.457	0.33	0.252	0.217	–	–	–	–	–
LK-2	1.07	1.03	0.446	0.222	0.211	0.423	0.445	0.23	0.187	0.106	0.177	0.174	0.163	0.162	0.195	0.867	0.732	0.266	0.117	0.133
NCI-H358	0.908	1.03	0.475	0.166	0.164	0.3	0.321	0.162	0.0752	0.0692	0.0899	0.0976	0.118	0.0944	0.0929	–	–	–	–	–
NCI-H522	1.02	0.91	0.935	0.561	0.308	0.741	0.581	0.612	0.484	0.404	0.481	0.549	0.58	0.536	0.454	–	–	–	–	–
NCI-H650	0.913	0.961	0.69	0.33	0.349	0.511	0.458	0.374	0.171	0.205	0.66	0.671	0.35	0.173	0.237	–	–	–	–	–
NCI-H661	0.979	0.998	0.685	0.348	0.333	0.28	0.249	0.2	0.21	0.18	0.37	0.348	0.327	0.301	0.321	–	–	–	–	–
NCI-H1299	1.01	1.02	0.718	0.269	0.318	–	–	–	–	–	–	–	–	–	–	1.06	1.09	0.833	0.232	0.238
NCI-H1563	1.02	0.984	0.888	0.865	0.654	0.709	0.628	0.65	0.528	0.452	–	–	–	–	–	–	–	–	–	–
NCI-H1648	1.04	0.919	0.404	0.241	0.181	–	–	–	–	–	0.455	0.371	0.157	0.235	0.182	–	–	–	–	–
NCI-H1703	1.1	0.886	0.52	0.148	0.194	–	–	–	–	–	–	–	–	–	–	1.38	1.28	0.509	0.124	0.0953
NCI-H1792	1.11	0.894	0.403	0.16	0.103	0.324	0.279	0.256	0.0695	0.0567	–	–	–	–	–	0.633	0.627	0.604	0.188	0.13
NCI-H2342	1.09	1	0.855	0.623	0.466	0.631	0.652	0.457	0.379	0.299	0.611	0.54	0.333	0.334	0.337	–	–	–	–	–
